{"source": "patent US11845730B2", "about": "“1,3-substituted cyclobutyl derivatives and uses thereof” (Novartis AG, priority 2021, dated 2023)", "note": "Where a name gives a salt, the structure may show the parent alone."}
{"target": "human TRPV1 (Homo sapiens (Human), UniProt Q8NER1)", "sequence (Q8NER1 whole entry)": "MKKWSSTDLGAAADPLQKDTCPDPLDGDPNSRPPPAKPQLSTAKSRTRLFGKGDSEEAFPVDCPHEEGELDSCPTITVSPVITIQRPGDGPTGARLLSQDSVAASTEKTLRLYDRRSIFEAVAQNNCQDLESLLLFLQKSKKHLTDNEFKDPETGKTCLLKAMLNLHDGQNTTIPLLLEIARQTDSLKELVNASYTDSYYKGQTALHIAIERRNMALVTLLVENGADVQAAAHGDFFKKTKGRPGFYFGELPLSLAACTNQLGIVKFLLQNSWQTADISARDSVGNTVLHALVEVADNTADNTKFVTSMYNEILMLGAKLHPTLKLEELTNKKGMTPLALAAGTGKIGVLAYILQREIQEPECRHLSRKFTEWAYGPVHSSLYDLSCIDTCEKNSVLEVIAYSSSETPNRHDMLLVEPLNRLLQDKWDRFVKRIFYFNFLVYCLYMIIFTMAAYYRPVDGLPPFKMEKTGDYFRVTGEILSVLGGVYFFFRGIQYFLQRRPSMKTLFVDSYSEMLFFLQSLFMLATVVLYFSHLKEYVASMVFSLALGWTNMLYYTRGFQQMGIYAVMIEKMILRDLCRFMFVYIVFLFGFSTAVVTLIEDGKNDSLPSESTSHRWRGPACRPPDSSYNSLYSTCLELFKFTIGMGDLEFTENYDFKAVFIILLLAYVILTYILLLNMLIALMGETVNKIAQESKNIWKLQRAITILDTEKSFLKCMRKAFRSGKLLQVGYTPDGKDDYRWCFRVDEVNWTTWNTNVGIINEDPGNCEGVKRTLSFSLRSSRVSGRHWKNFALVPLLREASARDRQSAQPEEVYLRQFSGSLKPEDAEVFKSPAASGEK", "settings": "read-out: IC50 (μM), antagonist effect against human TRPV1; CHO cells expressing human TrpV1; stimulated with 2.5 μM NADA (EC80); mean of at least three independent experiments", "units": {"IC50": "nM"}, "protocol": "Chinese Hamster Ovary (CHO) cells transfected to express human TrpV1 receptor (which are herein referred to as CHO-huTrpV1 cells), were grown in F-12 Ham's Nutrient Mixture media (HyClone SH30026.01) supplemented with 10% Fetal Bovine Serum (Invitrogen #26140-079), 1% Antibiotic/antimycotic (Invitrogen #15240-062) and 500 ug/mL geneticin (ThermoFisher scientific #1031035). Cells were grown in T-75 flasks at 37° C. incubator with 5% CO2. The cells were passaged twice a week at a ratio of 1:10 to 1:20 to maintain steady growth. For experimentation, cells were harvested at approximately 80% confluency and plated onto 384 well black cell culture plates (cat #781091, Greinier Bio-One Inc.) at 15,000 cells per well in 20 μl media and grown overnight.\nThe loading dye was prepared following instruction of Calcium 6 assay kit (Molecular Probes, #R8190): 10 ml buffer from bottle B was added to 1 vial of bottle A (adapted to room temperature from −20° C.) and mixed well, then 2.5 mM of fresh prepared probenecid, was added and mixed well. 20 μl/well of loading dye was added on top of the cells, and incubated at 37° C. for 1 hour 30 min.\nAssay buffer preparation: 1×HBSS, 2 mM HEPES, 0.1% BSA plus 2.5 mM freshly prepared probenecid (Invitrogen, #P36400). 25 μl/well assay buffer in 384 well clear plate (cat #782281, Greiner Bio-one) was dispensed with buffer distributor (Multidrop ComB1 from Thermo Scientific). The compounds were in 384 Echo plate (cat #LPL0200, Labcyte) and the starting concentration of compound was 10 mM, then 1 to 3 serial dilution in 100% DMSO, 8 ul/well). 125 nl compounds was transferred to the 384 well plate containing 25 μl/well buffer with Echo® 555 Liquid Handler (Labcyte), such that the compound concentration was 5 fold of final concentration. The plate was shook slowly at 40 rpm/min for 10 min to mix. 10 μl of 5 fold compound in the buffer was transferred to the cell plate (containing 20 μl cells and 20 μl dye) using Vertical Pipetting Station 384ST (Agilent Technologies). Six fold of final concentration of NADA (N-arachidonyl dopamine, cat #A8848, Sigma) in the assay buffer was prepared and 30 μl/well was distributed in 384 well clear plate.\nAfter compounds were added to the cell plate with loading dye, within 10-15 minutes, cell plate and plate containing NADA was placed into the FLIPR (Fluorescent Imaging Plate Reader) instrument (Tetra System, Molecular device). The TRPV1 receptor was stimulated by application of 10 μl per well of NADA. For testing the effect of compounds for possible antagonism, 2.5 μM NADA was used at the EC80 concentration.\nFor determination of antagonist IC50 values (concentration of antagonist that inhibits response to NADA by 50%), at least 10 antagonist concentration were measured in triplicate. The response in the presence of the antagonist was calculated as a percentage of the control response to NADA and was plotted against the concentration of the antagonist. The IC50 was estimated by non-linear regression analysis to sigmoidal-logistic curves by HELIOS (PROD 2) system. These values were averaged (means and standard error of the mean) for at least three independent experiments."}
{"smiles": "Fc1ccc(O[C@H]2C[C@H](NCc3cccc4cnccc34)C2)cc1C(F)(F)F", "note": "[Example 22, (1r,3r)-3-(4-fluoro-3-(trifluoromethyl)phenoxy)-N-(isoquinolin-5-ylmethyl)cyclobutan-1-amine, HCl]", "IC50": 436}
{"smiles": "CCOC(=O)c1cccc(O[C@H]2C[C@H](NCc3c(F)ccc4cnccc34)C2)c1", "note": "[Example 34, ethyl 3-((1r,3r)-3-(((6-fluoroisoquinolin-5-yl)methyl)amino)cyclobutoxy)benzoate, HCl]", "IC50": 83.6}
{"smiles": "[O-][n+]1ccc2c(CN[C@H]3C[C@H](Oc4ccc(F)c(C(F)(F)F)c4)C3)c(F)ccc2c1", "note": "[Example 73, 6-fluoro-5-((((1r,3r)-3-(4-fluoro-3-(trifluoromethyl)phenoxy)cyclobutyl)amino)methyl)isoquinoline 2-oxide]", "IC50": 193}
{"smiles": "Fc1ccc2cnccc2c1CN[C@H]1C[C@H](Oc2ccc(C(F)(F)F)cc2)C1", "note": "[Example 76, (1r,3r)-N-((6-fluoroisoquinolin-5-yl)methyl)-3-(4-(trifluoromethyl)phenoxy)cyclobutan-1-amine, HCl]", "IC50": 27.7}
{"smiles": "OCc1cc(F)c(CN[C@H]2C[C@H](Oc3ccc4c(c3)OC(F)(F)O4)C2)c2ccncc12", "note": "[Example 47, (5-((((1r,3r)-3-((2,2-difluorobenzo[d][1,3]dioxol-5-yl)oxy)cyclobutyl)amino)methyl)-6-fluoroisoquinolin-8-yl)methanol, HCl]", "IC50": 23.8}
{"smiles": "Fc1ccc2cnccc2c1CN[C@H]1C[C@H](Oc2nc(C(F)(F)F)cs2)C1", "note": "[Example 107, (1r,3r)-N-((6-fluoroisoquinolin-5-yl)methyl)-3-((4-(trifluoromethyl)thiazol-2-yl)oxy)cyclobutan-1-amine]", "IC50": 1910}
{"smiles": "Nc1cc2c(CN[C@H]3C[C@H](Oc4ccc(F)c(C(F)(F)F)c4)C3)cccc2cn1", "note": "[Example 13, 5-((((1r,3r)-3-(4-fluoro-3-(trifluoromethyl)phenoxy)cyclobutyl)amino)methyl)isoquinolin-3-amine]", "IC50": 63.7}
{"smiles": "Nc1cc2c(CN[C@H]3C[C@H](Oc4ccc(C(F)(F)F)nc4)C3)cccc2cn1", "note": "[Example 74, 5-((((1r,3r)-3-((6-(trifluoromethyl)pyridin-3-yl)oxy)cyclobutyl)amino)methyl)isoquinolin-3-amine]", "IC50": 995}
{"smiles": "Fc1ccc2cnccc2c1CN[C@H]1C[C@H](Oc2cncc(C(F)(F)F)c2)C1", "note": "[Example 95, (1r,3r)-N-((6-fluoroisoquinolin-5-yl)methyl)-3-((5-(trifluoromethyl)pyridin-3-yl)oxy)cyclobutan-1-amine, HCl]", "IC50": 323}
{"smiles": "N#Cc1cc(O[C@H]2C[C@H](NCc3c(F)ccc4cnccc34)C2)ccc1C(F)(F)F", "note": "[Example 59, 5-((1r,3r)-3-(((6-fluoroisoquinolin-5-yl)methyl)amino)cyclobutoxy)-2-(trifluoromethyl)benzonitrile]", "IC50": 75.8}
{"smiles": "Fc1ccc2cnccc2c1CN[C@H]1C[C@H](Oc2ccnc(C(F)(F)F)c2)C1", "note": "[Example 56, (1r,3r)-N-((6-fluoroisoquinolin-5-yl)methyl)-3-((2-(trifluoromethyl)pyridin-4-yl)oxy)cyclobutan-1-amine]", "IC50": 119}
{"smiles": "Fc1cccc(O[C@H]2C[C@H](NCc3c(F)ccc4cnccc34)C2)c1F", "note": "[Example 35, (1r,3r)-3-(2,3-difluorophenoxy)-N-((6-fluoroisoquinolin-5-yl)methyl)cyclobutan-1-amine]", "IC50": 128}
{"smiles": "Fc1ccc2cnccc2c1CN[C@H]1C[C@H](Oc2cccc(C(F)(F)F)c2)C1", "note": "[Example 71, (1r,3r)-N-((6-fluoroisoquinolin-5-yl)methyl)-3-(3-(trifluoromethyl)phenoxy)cyclobutan-1-amine, HCl]", "IC50": 31.6}
{"smiles": "Fc1ccc(O[C@H]2C[C@H](NCc3cccc4cncnc34)C2)cc1C(F)(F)F", "note": "[Example 87, (1r,3r)-3-(4-fluoro-3-(trifluoromethyl)phenoxy)-N-(quinazolin-8-ylmethyl)cyclobutan-1-amine, HCl]", "IC50": 321}
{"smiles": "Nc1cc2c(CN[C@H]3C[C@H](Oc4ccc(C(F)(F)F)nc4)C3)c(F)ccc2cn1", "note": "[Example 17, 6-fluoro-5-((((1r,3r)-3-((6-(trifluoromethyl)pyridin-3-yl)oxy)cyclobutyl)amino)methyl)isoquinolin-3-amine, HCl]", "IC50": 130}
{"smiles": "Fc1ccc2cnccc2c1CN[C@H]1C[C@H](Oc2ccc(S(F)(F)(F)(F)F)cc2)C1", "note": "[Example 83, (1r,3r)-N-((6-fluoroisoquinolin-5-yl)methyl)-3-(4-(pentafluoro-λ^6-sulfaneyl)phenoxy)cyclobutan-1-amine, HCl]", "IC50": 207}
{"smiles": "Fc1ccc(O[C@H]2C[C@H](NCc3cccc4cnccc34)C2)cc1Cl", "note": "[Example 28, (1r,3r)-3-(3-chloro-4-fluorophenoxy)-N-(isoquinolin-5-ylmethyl)cyclobutan-1-amine, HCl]", "IC50": 280}
{"smiles": "CS(=O)(=O)NCC(O)c1cc(F)c(CN[C@H]2C[C@H](Oc3ccc(F)c(C(F)(F)F)c3)C2)c2ccncc12", "note": "(some centres unmarked) [Example 66, N-(2-(6-fluoro-5-((((1r,3r)-3-(4-fluoro-3-(trifluoromethyl)phenoxy)cyclobutyl)amino)methyl)isoquinolin-8-yl)-2-hydroxyethyl)methanesulfonamide]", "IC50": 1110}
{"smiles": "OCC[C@H](O)c1cc(F)c(CN[C@H]2C[C@H](Oc3ccc(F)c(C(F)(F)F)c3)C2)c2ccncc12", "note": "(single isomer, unassigned; peak 1) [Example 9 peak 1]", "IC50": 0.09}
{"smiles": "Fc1ccc(CO[C@H]2C[C@H](NCc3c(F)ccc4cnccc34)C2)cc1F", "note": "[Example 78, (1r,3r)-3-((3,4-difluorobenzyl)oxy)-N-((6-fluoroisoquinolin-5-yl)methyl)cyclobutan-1-amine]", "IC50": 770}
{"smiles": "Cc1cc(O[C@H]2C[C@H](NCc3c(F)ccc4cnccc34)C2)cc(F)c1F", "note": "[Example 54, (1r,3r)-3-(3,4-difluoro-5-methylphenoxy)-N-((6-fluoroisoquinolin-5-yl)methyl)cyclobutan-1-amine]", "IC50": 59.5}
{"smiles": "Fc1ccc2cnccc2c1CN[C@H]1C[C@H](Oc2cccc(OC(F)(F)F)c2)C1", "note": "[Example 37, (1r,3r)-N-((6-fluoroisoquinolin-5-yl)methyl)-3-(3-(trifluoromethoxy)phenoxy)cyclobutan-1-amine, HCl]", "IC50": 81.3}
{"smiles": "O=C(O)C(O)c1cc(F)c(CN[C@H]2C[C@H](Oc3ccc(F)c(C(F)(F)F)c3)C2)c2ccncc12", "note": "(some centres unmarked) [Example 72, 2-(6-fluoro-5-((((1r,3r)-3-(4-fluoro-3-(trifluoromethyl)phenoxy)cyclobutyl)amino)methyl)isoquinolin-8-yl)-2-hydroxyacetic acid]", "IC50": 52.1}
{"smiles": "Fc1ccc(O[C@H]2C[C@H](NCc3c(F)ccc4cnccc34)C2)cc1F", "note": "[Example 27, (1r,3r)-3-(3,4-difluorophenoxy)-N-((6-fluoroisoquinolin-5-yl)methyl)cyclobutan-1-amine, HCl]", "IC50": 23}
{"smiles": "Fc1ccc(O[C@H]2C[C@H](NCc3cccc4cnc(Cl)cc34)C2)cc1C(F)(F)F", "note": "[Example 98, (1r,3r)-N-((3-chloroisoquinolin-5-yl)methyl)-3-(4-fluoro-3-(trifluoromethyl)phenoxy)cyclobutan-1-amine, HCl]", "IC50": 418}
{"smiles": "Fc1ccc2cnccc2c1CN[C@H]1C[C@H](Oc2cccc(C3CC3)c2)C1", "note": "[Example 88, (1r,3r)-3-(3-cyclopropylphenoxy)-N-((6-fluoroisoquinolin-5-yl)methyl)cyclobutan-1-amine, HCl]", "IC50": 95.2}
{"smiles": "Fc1cc(F)cc(O[C@H]2C[C@H](NCc3c(F)ccc4cnccc34)C2)c1", "note": "[Example 82, (1r,3r)-3-(3,5-difluorophenoxy)-N-((6-fluoroisoquinolin-5-yl)methyl)cyclobutan-1-amine, HCl]", "IC50": 169}
{"smiles": "Cc1c(F)cc(O[C@H]2C[C@H](NCc3c(F)ccc4cnccc34)C2)cc1F", "note": "[Example 52, (1r,3r)-3-(3,5-difluoro-4-methylphenoxy)-N-((6-fluoroisoquinolin-5-yl)methyl)cyclobutan-1-amine]", "IC50": 27.1}
{"smiles": "Fc1ccc(CO[C@H]2C[C@H](NCc3c(F)ccc4cnccc34)C2)c(F)c1", "note": "[Example 105, (1r,3r)-3-((2,4-difluorobenzyl)oxy)-N-((6-fluoroisoquinolin-5-yl)methyl)cyclobutan-1-amine]", "IC50": 1280}
{"smiles": "OCCC(CO)c1cc(F)c(CN[C@H]2C[C@H](Oc3ccc(F)c(C(F)(F)F)c3)C2)c2ccncc12", "note": "(some centres unmarked) [Example 77, 2-(6-fluoro-5-((((1r,3r)-3-(4-fluoro-3-(trifluoromethyl)phenoxy)cyclobutyl)amino)methyl)isoquinolin-8-yl)butane-1,4-diol]", "IC50": 691}
{"smiles": "Fc1ccc2cnccc2c1CN[C@H]1C[C@H](Oc2ccc(C(F)F)nc2)C1", "note": "[Example 110, (1r,3r)-3-((6-(difluoromethyl)pyridin-3-yl)oxy)-N-((6-fluoroisoquinolin-5-yl)methyl)cyclobutan-1-amine]", "IC50": 1380}
{"smiles": "CC(O)c1cc(F)c(CN[C@H]2C[C@H](Oc3ccc(F)c(C(F)(F)F)c3)C2)c2ccncc12", "note": "(some centres unmarked) [Example 8, 1-(6-fluoro-5-((((1r,3r)-3-(4-fluoro-3-(trifluoromethyl)phenoxy)cyclobutyl)amino)methyl)isoquinolin-8-yl)ethan-1-ol, HCl]", "IC50": 165}
{"smiles": "Nc1cc(F)c(CN[C@H]2C[C@H](Oc3ccc(F)c(C(F)(F)F)c3)C2)c2ccncc12", "note": "[Example 12, 6-fluoro-5-((((1r,3r)-3-(4-fluoro-3-(trifluoromethyl)phenoxy)cyclobutyl)amino)methyl)isoquinolin-8-amine]", "IC50": 57.8}
{"smiles": "Cc1cc(O[C@H]2C[C@H](NCc3c(F)ccc4cnccc34)C2)cc(C(F)(F)F)n1", "note": "[Example 106, (1r,3r)-N-((6-fluoroisoquinolin-5-yl)methyl)-3-((2-methyl-6-(trifluoromethyl)pyridin-4-yl)oxy)cyclobutan-1-amine]", "IC50": 1650}
{"smiles": "C[C@]1(NCc2c(F)ccc3cnccc23)C[C@@H](Oc2ccc(F)c(C(F)(F)F)c2)C1", "note": "[Example 68 cis, (1s,3s)-3-(4-fluoro-3-(trifluoromethyl)phenoxy)-N-((6-fluoroisoquinolin-5-yl)methyl)-1-methylcyclobutan-1-amine]", "IC50": 333}
